Tests used:
[1] = biological target: Sodium-dependent serotonin transporter (Rattus norvegicus, UniProt P31652); test: In vitro binding affinity towards serotonin transporter using [3H]citalopram as radioligand in rat cerebral cortex membranes; format: cell membranes, Membrane
D(2) dopamine receptor = D(2) dopamine receptor (Rattus norvegicus, UniProt P61169); test: Binding affinity determined against dopamine receptor D2 in rat caudate membranes using [3H]- raclopride as radioligand; format: cell membranes
[2] = biological target: 5-hydroxytryptamine receptor 1B (Homo sapiens, UniProt P28222); test: Binding affinity towards human 5-hydroxytryptamine 1B receptor in L-M(tk-) cells using [3H]GR-125743 as radioligand; format: cell-based
[3] = biological target: 5-hydroxytryptamine receptor 1D (Homo sapiens, UniProt P28221); test: Binding affinity towards human 5-hydroxytryptamine 1D receptor in L-M(tk-) cells using [3H]GR-125743 as radioligand; format: cell-based
[4] = biological target: T1, Adrenergic receptor alpha-1 (Rattus norvegicus, UniProt P15823+P23944+P43140); test: Binding affinity determined against alpha-1 adrenergic receptor in rat cortex membranes using [3H]prazosin as radioligand; format: cell membranes
T1 sequence (P15823 whole entry): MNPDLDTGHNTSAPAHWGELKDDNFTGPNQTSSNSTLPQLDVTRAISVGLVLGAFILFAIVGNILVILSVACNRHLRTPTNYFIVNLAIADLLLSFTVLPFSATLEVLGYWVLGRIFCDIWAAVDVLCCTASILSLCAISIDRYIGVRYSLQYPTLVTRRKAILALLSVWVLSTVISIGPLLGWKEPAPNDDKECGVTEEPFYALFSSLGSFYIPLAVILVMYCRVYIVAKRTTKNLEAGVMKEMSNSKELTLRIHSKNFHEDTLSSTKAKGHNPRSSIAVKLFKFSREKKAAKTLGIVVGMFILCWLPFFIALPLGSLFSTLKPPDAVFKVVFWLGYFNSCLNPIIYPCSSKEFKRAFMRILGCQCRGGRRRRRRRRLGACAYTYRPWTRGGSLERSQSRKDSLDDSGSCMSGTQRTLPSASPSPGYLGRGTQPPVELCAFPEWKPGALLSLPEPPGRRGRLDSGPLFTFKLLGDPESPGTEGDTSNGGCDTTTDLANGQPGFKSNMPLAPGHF
T1 sequence (P23944 whole entry): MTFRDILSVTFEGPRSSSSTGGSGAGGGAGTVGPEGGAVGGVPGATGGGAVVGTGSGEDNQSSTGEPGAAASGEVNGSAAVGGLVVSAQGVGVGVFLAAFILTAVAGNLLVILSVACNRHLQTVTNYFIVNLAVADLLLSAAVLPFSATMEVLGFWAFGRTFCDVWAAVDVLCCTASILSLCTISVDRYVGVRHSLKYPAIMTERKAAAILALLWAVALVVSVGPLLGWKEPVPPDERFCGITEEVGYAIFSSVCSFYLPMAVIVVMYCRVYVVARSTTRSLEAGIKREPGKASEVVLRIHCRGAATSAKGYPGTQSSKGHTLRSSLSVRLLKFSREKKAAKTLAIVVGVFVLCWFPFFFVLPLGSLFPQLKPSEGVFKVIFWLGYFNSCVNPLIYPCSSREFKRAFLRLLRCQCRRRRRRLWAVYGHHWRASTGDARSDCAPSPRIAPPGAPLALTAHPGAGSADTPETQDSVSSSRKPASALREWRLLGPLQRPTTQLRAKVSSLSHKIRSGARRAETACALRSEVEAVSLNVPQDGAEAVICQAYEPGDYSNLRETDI
T1 sequence (P43140 whole entry): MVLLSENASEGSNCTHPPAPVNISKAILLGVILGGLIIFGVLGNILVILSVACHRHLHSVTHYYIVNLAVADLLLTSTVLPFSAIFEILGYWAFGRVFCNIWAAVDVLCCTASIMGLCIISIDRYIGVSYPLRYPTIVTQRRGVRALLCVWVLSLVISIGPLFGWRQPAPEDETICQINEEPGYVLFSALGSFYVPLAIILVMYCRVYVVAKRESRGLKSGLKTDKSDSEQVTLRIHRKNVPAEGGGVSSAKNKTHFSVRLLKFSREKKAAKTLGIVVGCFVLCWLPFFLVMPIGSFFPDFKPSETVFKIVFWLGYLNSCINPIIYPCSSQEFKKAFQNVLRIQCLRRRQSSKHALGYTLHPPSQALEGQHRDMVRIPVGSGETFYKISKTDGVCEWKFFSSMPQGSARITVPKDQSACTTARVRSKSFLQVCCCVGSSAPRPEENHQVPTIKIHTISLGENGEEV

Cavia porcellus = organism: Cavia porcellus; test: Ability at 30 uM to potentiate potassium-stimulated [3H]5-HT release from preloaded guinea pig cortical slices; format: functional

Sequence of 5-hydroxytryptamine receptor 1D (P28221 whole entry): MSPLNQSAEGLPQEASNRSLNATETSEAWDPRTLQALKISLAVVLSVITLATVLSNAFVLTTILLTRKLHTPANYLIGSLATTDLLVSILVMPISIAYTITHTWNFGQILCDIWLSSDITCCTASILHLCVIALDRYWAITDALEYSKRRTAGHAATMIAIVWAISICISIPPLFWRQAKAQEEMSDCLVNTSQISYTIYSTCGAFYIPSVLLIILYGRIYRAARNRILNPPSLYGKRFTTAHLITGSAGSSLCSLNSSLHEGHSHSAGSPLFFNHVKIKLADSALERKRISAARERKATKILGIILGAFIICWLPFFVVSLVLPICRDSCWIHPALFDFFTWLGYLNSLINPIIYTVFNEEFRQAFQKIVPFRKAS
Sequence of 5-hydroxytryptamine receptor 1B (P28222 whole entry): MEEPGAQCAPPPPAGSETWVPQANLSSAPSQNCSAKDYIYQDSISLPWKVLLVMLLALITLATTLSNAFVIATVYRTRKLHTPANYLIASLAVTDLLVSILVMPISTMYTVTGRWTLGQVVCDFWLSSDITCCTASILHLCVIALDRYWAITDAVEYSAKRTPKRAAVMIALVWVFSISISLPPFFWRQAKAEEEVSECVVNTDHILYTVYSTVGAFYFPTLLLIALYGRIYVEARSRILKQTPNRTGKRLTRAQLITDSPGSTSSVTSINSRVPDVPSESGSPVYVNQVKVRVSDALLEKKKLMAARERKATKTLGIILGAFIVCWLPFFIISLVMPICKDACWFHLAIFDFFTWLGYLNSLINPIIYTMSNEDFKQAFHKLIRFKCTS
Sequence of Sodium-dependent serotonin transporter (P31652 whole entry): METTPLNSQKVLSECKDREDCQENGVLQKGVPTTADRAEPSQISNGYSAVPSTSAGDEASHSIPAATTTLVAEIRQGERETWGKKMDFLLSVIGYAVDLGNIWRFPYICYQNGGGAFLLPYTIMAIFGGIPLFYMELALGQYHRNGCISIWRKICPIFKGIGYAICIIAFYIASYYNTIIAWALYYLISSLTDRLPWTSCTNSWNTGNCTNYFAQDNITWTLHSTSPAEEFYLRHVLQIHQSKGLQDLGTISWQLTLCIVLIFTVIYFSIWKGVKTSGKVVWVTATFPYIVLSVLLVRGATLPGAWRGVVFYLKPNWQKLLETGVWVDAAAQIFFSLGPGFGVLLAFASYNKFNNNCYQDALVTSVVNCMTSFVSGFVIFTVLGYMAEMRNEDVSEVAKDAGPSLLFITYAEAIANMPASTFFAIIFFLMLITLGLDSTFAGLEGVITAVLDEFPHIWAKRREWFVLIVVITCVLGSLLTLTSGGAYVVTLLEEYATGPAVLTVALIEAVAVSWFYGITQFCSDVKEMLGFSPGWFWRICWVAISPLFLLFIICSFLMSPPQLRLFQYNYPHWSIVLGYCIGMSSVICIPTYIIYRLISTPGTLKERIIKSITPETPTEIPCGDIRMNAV
Sequence of D(2) dopamine receptor (P61169 whole entry): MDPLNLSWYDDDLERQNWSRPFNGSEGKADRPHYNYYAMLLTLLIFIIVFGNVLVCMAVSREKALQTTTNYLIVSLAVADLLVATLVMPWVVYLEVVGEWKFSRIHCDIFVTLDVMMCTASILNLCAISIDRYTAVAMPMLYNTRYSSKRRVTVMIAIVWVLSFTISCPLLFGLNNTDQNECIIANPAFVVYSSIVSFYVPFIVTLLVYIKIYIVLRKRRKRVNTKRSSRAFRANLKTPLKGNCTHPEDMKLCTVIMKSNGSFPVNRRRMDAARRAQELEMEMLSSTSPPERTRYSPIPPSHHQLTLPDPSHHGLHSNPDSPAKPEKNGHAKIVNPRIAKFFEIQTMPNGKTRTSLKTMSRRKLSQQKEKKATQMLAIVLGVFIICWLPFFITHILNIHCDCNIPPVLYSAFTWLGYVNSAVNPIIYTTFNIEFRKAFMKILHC

For `NC(=O)c1ccc2c(c1)CCO[C@@H]2CCN1CC=C(c2c[nH]c3c(F)cccc23)CC1`, the Ki [1] was 0.2 nM, the Ki (D(2) dopamine receptor) was 48 nM and the Ki [2] was 199 nM. It also gave a Ki [3] of 25 nM and a Ki [4] of 1.7 nM.

`NC(=O)c1ccc2c(c1)CCO[C@H]2CCN1CC=C(c2c[nH]c3c(F)cccc23)CC1` was tested, and the Ki [1] was 0.3 nM, the Ki (D(2) dopamine receptor) was 7 nM and the Ki [2] was 387 nM. The Ki [3] was 15 nM and the Ki [4] was 2.8 nM.

`NC(=O)c1ccc2c(c1)CCOC2CCN1CC=C(c2ccc(F)c3ccoc23)CC1` (configuration not stated) was tested, and the Ki [1] was 1.9 nM, the Ki (D(2) dopamine receptor) was 52 nM and the Ki [3] was 27 nM. It also gave a Ki [4] of 31 nM.

With `NC(=O)c1ccc2c(c1)CCOC2CCN1CC=C(c2c[nH]c3cc(Cl)ccc23)CC1` (configuration not stated) the Ki [1] was 0.38 nM, the Ki [2] was > 1000 nM and the Ki [3] was 145 nM.

For `NC(=O)c1ccc2c(c1)CCOC2CCN1CC=C(c2ccc3cc(F)ccc3c2)CC1` (configuration not stated), the Ki [1] was 2.2 nM, the Ki (D(2) dopamine receptor) was 491 nM and the Ki [2] was > 1000 nM. The Ki [3] was 71 nM and the Ki [4] was 36 nM.

`NC(=O)c1ccc2c(c1)CCOC2CCN1CCN(c2c[nH]c3cc(F)ccc23)CC1` (configuration not stated) was tested, and the Ki [1] was 19 nM, the Ki (D(2) dopamine receptor) was 7.1 nM and the Ki [2] was 310 nM. For the same compound, the Ki [3] was 74 nM and the Ki [4] was 5.8 nM.

`Cn1cc(C2=CCN(CCC3OCCc4cc(C(N)=O)ccc43)CC2)c2ccc(F)cc21` (configuration not stated) was tested, and the Ki [1] was 0.98 nM, the Ki (D(2) dopamine receptor) was 73 nM and the Ki [2] was > 1000 nM. It also gave a Ki [3] of 65 nM and a Ki [4] of 17 nM.

In the case of `N#Cc1cccc2c(C3=CCN(CCC4OCCc5cc(C(N)=O)ccc54)CC3)c[nH]c12` (configuration not stated), the Ki [1] is reported as 2.1 nM, the Ki (D(2) dopamine receptor) is reported as 15 nM and the Ki [2] is reported as > 1000 nM. It also gave a Ki [3] of 130 nM and a Ki [4] of 134 nM.

`C[C@H]1CC(c2c[nH]c3cc(F)ccc23)CCN1CCC1OCCc2cc(C(N)=O)ccc21` (some centres not stated) was tested, and the Ki [1] was 0.78 nM, the Ki (D(2) dopamine receptor) was 86 nM and the Ki [2] was > 1000 nM. The Ki [3] was 28 nM and the Ki [4] was 20 nM.

With `NC(=O)c1ccc2c(c1)CCOC2CCN1CC=C(c2c[nH]c3cc(C(F)(F)F)ccc23)CC1` (configuration not stated) the Ki [1] was 0.99 nM, the Ki (D(2) dopamine receptor) was 8.6 nM and the Ki [2] was > 1000 nM. The Ki [3] was 122 nM and the Ki [4] was 190 nM.

Work on `NC(=O)c1ccc2c(c1)CCOC2CCN1CC=C(c2[nH]nc3cc(F)ccc23)CC1` (configuration not stated) yielded a Ki [1] of 0.5 nM, a Ki (D(2) dopamine receptor) of 33 nM and a Ki [2] of 210 nM. It also gave a Ki [3] of 24 nM and a Ki [4] of 2.1 nM.

In the case of `Cn1nc(C2=CCN(CCC3OCCc4cc(C(N)=O)ccc43)CC2)c2ccc(F)cc21` (configuration not stated), the Ki [1] is reported as 0.54 nM, the Ki (D(2) dopamine receptor) is reported as 183 nM and the Ki [2] is reported as > 1000 nM. For the same compound, the Ki [3] was 51 nM and the Ki [4] was 16 nM.

`NC(=O)c1ccc2c(c1)CCOC2CCN1CCC(c2nsc3cc(F)ccc23)CC1` (configuration not stated) was tested, and the Ki [1] was 53 nM, the Ki [2] was 200 nM and the Ki [3] was 40 nM.

`NC(=O)c1ccc2c(c1)CCOC2CCN1CC=C(c2c[nH]c3ccc(F)cc23)CC1` (configuration not stated) was tested, and the Ki [1] was 1.6 nM, the Ki (D(2) dopamine receptor) was 2.1 nM and the Ki [2] was > 1000 nM. The Ki [3] was 130 nM and the Ki [4] was 101 nM.

`NC(=O)c1ccc2c(c1)CCOC2CCN1CCC(c2c[nH]c3cc(F)ccc23)CC1` (configuration not stated) showed a Ki [1] of 2 nM, a Ki (D(2) dopamine receptor) of 19 nM and a Ki [2] of 131 nM. The Ki [3] was 8.4 nM and the Ki [4] was 12 nM.

`NC(=O)c1ccc2c(c1)CCOC2CCN1CCC(c2cccc3ccccc23)CC1` (configuration not stated) was tested, and the Ki [1] was 15 nM, the Ki (D(2) dopamine receptor) was 50 nM and the Ki [2] was 73 nM. The Ki [3] was 14 nM, the Ki [4] was 30 nM and the Release (Cavia porcellus) was 52%.

Compound `NC(=O)c1ccc2c(c1)CCOC2CCN1CCC(c2c[nH]c3cc(F)ccc23)C1` (configuration not stated) has a Ki [1] of 2.1 nM, a Ki (D(2) dopamine receptor) of 28 nM and a Ki [2] of 96 nM. It also gave a Ki [3] of 40 nM and a Ki [4] of 1.2 nM.

`NC(=O)c1ccc2c(c1)CCOC2CCN1CC=C(c2noc3cc(F)ccc23)CC1` (configuration not stated) gave a Ki [1] of 8 nM, a Ki (D(2) dopamine receptor) of 37 nM and a Ki [2] of 155 nM. For the same compound, the Ki [3] was 63 nM and the Ki [4] was 3 nM.

For `NC(=O)c1ccc2c(c1)CCOC2CCN1CC=C(c2cccc3ccccc23)CC1` (configuration not stated), the Ki [1] was 3.2 nM, the Ki (D(2) dopamine receptor) was 167 nM and the Ki [2] was 153 nM. For the same compound, the Ki [3] was 5.4 nM, the Ki [4] was 224 nM and the Release (Cavia porcellus) was 11%.

In the case of `NC(=O)c1ccc2c(c1)CCOC2CCN1CC=C(c2csc3cc(F)ccc23)CC1` (configuration not stated), the Ki [1] is reported as 1 nM, the Ki (D(2) dopamine receptor) is reported as 3.8 nM and the Ki [2] is reported as 186 nM. The Ki [3] was 20 nM and the Ki [4] was 17 nM.

For `NC(=O)c1ccc2c(c1)CCOC2CCN1CC=C(c2coc3cc(F)ccc23)CC1` (configuration not stated), the Ki [1] was 0.29 nM, the Ki (D(2) dopamine receptor) was 21 nM and the Ki [2] was 155 nM. For the same compound, the Ki [3] was 28 nM and the Ki [4] was 2.8 nM.

`NC(=O)c1ccc2c(c1)CCOC2CCN1CC=C(c2c[nH]c3c(F)c(F)ccc23)CC1` (configuration not stated) was tested, and the Ki [1] was 0.3 nM, the Ki (D(2) dopamine receptor) was 6.7 nM and the Ki [2] was > 1000 nM. For the same compound, the Ki [3] was 57 nM and the Ki [4] was 16 nM.

For `NC(=O)c1ccc2c(c1)CCOC2CCN1CC=C(c2c[nH]c3c(F)cccc23)CC1` (configuration not stated), the Ki [1] was 0.76 nM, the Ki (D(2) dopamine receptor) was 3.8 nM and the Ki [2] was > 1000 nM. The Ki [3] was 26 nM and the Ki [4] was 26 nM.

`NC(=O)c1ccc2c(c1)CCOC2CCN1CC=C(c2c[nH]c3cc(F)ccc23)CC1` (configuration not stated) gave a Ki [1] of 0.11 nM, a Ki (D(2) dopamine receptor) of 4.7 nM and a Ki [2] of 281 nM. For the same compound, the Ki [3] was 56 nM, the Ki [4] was 16 nM and the Release (Cavia porcellus) was 36%.

For `NC(=O)c1ccc2c(c1)CCOC2CCN1CC=C(c2cccc3ccc(F)cc23)CC1` (configuration not stated), the Ki [1] was 13 nM, the Ki (D(2) dopamine receptor) was 87 nM and the Ki [2] was 210 nM. It also gave a Ki [3] of 26 nM and a Ki [4] of 202 nM.

`COc1ccc2[nH]cc(C3=CCN(CCC4OCCc5cc(C(N)=O)ccc54)CC3)c2c1` (configuration not stated) was tested, and the Ki [1] was 3.5 nM, the Ki (D(2) dopamine receptor) was 26 nM and the Ki [2] was 316 nM. The Ki [3] was 31 nM, the Ki [4] was 75 nM and the Release (Cavia porcellus) was 42%.

`NC(=O)c1ccc2c(c1)CCOC2CCN1CC=C(c2c[nH]c3c(Cl)c(Cl)ccc23)CC1` (configuration not stated) was tested, and the Ki [1] was 0.28 nM, the Ki [2] was > 1000 nM and the Ki [3] was 165 nM.

Source: ChEMBL document CHEMBL1137925, “SAR development of a selective 5-HT1D antagonist/serotonin reuptake inhibitor lead using rapid parallel synthesis” (Bioorg Med Chem Lett, 2004)
